In article PMC6469979, “A Dopamine-Responsive Signal Transduction Controls Transcription of Salmonella enterica Serovar Typhimurium Virulence Genes” (mBio, 2019):

Target: EmrR-His6 (EmrR) (Salmonella enterica, UniProt Q7CPY9)
Test: EMSA, release of EmrR-His6 from […]-labelled pagC-pagD promoter DNA
Details: dopamine 1, 10, 100 uM; 50 pmol EmrR-His6 in 20 ul; room temperature, 30 min; DNA-binding inhibition

EmrR-His6 (EmrR), sequence (Q7CPY9 entry or part of it): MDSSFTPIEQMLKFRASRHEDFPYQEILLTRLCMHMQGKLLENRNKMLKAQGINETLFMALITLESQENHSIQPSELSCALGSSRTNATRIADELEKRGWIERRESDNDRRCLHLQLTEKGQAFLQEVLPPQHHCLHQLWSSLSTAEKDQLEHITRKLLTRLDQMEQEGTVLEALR

NCCc1ccc(O)c(O)c1 [dopamine]
EMSA, release of EmrR-His6 from 32P-labelled pagC-pagD promoter DNA: dopamine alone was sufficient to reduce the affinity of a pure EmrR protein
